Earlier results in article PMC11748363, “Antimicrobial and Antiproliferative Properties of 2‐Phenyl‐N‐(Pyridin‐2‐yl)acetamides” (Chemical Biology & Drug Design, 2025).
Values after ≈ are worked out from the molar mass of the structure shown.

Tested on: Mycobacterium tuberculosis H37Ra
Design: method as in Nawrot et al. 2021
Settings: previously published N‐pyridinyl benzamides; ref Nawrot et al. 2021; cited from earlier work

SMILES	MIC Mtb H37Ra (μg/mL), previously published compounds [µg/mL]
COc1cccc(C(=O)Nc2cccc(Cl)n2)c1 [C00003 R1=6-Cl,R2=3-OMe]	31.25 (≈ 119 µM)
O=C(Nc1cccc(Cl)n1)c1ccc(Cl)cc1 [C00003 R1=6-Cl,R2=4-Cl]	> 500
COc1ccc(C(=O)Nc2cccc(Cl)n2)cc1 [C00003 R1=6-Cl,R2=4-OMe]	15.625 (≈ 59.5 µM)
O=C(Nc1cccc(Cl)n1)c1ccccc1 [C00003 R1=6-Cl,R2=H]	125 (≈ 537 µM)
O=C(Nc1ccccn1)c1ccccc1Cl [C00003 R1=H,R2=2-Cl]	> 500
COc1ccccc1C(=O)Nc1ccccn1 [C00003 R1=H,R2=2-OMe]	31.25 (≈ 137 µM)
